Source: patent US20240189289A1, “INHIBITORS OF EPHB3 SIGNALING” (The Brigham and Women`s Hospital, Inc., priority 2021, published 2024)
Like-named read-outs stand apart in the source and are kept apart here.

How the values were obtained:
Format in all cases: biochemical
EphB4 = biological target: T1, EphB4 (Homo sapiens, UniProt P54760); test: Eph receptor kinase activity assay (radiometric), EphB4; conditions: for remaining activity at 0.01 µM: 10 nM compound, read-out: EphB4 % act 10 nM; for remaining activity at 0.03 µM: 30 nM compound, read-out: EphB4 % act 30 nM; for remaining activity at 0.1 µM: 100 nM compound, read-out: EphB4 % act 100 nM; for IC50: Table 2, Example 12
T1 sequence (P54760 16-987): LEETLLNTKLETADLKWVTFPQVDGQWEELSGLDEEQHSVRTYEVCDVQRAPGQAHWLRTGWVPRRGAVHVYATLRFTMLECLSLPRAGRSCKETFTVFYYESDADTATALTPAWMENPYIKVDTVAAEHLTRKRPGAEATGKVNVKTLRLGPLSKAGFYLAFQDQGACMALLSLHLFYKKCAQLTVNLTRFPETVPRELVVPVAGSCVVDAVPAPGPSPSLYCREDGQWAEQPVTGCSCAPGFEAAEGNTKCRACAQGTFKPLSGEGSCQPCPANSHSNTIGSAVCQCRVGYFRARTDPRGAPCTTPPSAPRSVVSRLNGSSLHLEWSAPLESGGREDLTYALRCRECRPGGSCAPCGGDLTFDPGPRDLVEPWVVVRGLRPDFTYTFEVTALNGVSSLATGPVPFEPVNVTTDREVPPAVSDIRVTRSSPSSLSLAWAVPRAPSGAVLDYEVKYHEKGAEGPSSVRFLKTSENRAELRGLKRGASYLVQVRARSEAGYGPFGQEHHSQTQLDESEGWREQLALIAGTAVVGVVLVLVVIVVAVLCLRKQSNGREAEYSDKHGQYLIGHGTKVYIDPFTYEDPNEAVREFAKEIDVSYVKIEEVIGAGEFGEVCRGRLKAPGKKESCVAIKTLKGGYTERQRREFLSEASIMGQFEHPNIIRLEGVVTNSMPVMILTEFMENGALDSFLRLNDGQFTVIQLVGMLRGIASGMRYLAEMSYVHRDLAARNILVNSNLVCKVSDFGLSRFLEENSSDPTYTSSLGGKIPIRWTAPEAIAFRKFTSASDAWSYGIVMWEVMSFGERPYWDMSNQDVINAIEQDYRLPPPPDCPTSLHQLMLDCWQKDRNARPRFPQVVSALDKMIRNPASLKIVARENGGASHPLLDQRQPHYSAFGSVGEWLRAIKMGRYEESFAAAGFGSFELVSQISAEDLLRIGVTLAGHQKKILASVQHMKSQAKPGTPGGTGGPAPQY

EphA4 = EphA4 (Homo sapiens, UniProt P54764); test: Eph receptor kinase activity assay (radiometric), EphA4; conditions: for remaining activity at 0.01 µM: 10 nM compound, read-out: EphA4 % act 10 nM; for remaining activity at 0.03 µM: 30 nM compound, read-out: EphA4 % act 30 nM; for remaining activity at 0.1 µM: 100 nM compound, read-out: EphA4 % act 100 nM; for IC50: Table 2, Example 12
EphA2 = EphA2 (Homo sapiens, UniProt P29317); test: Eph receptor kinase activity assay (radiometric), EphA2; conditions: for remaining activity at 0.01 µM: 10 nM compound, read-out: EphA2 % act 10 nM; for remaining activity at 0.03 µM: 30 nM compound, read-out: EphA2 % act 30 nM; for remaining activity at 0.1 µM: 100 nM compound, read-out: EphA2 % act 100 nM; for IC50: Table 2, Example 12
EphB3 = biological target: T2, EphB3 (Homo sapiens, UniProt P54753); test: EphB3 radiometric kinase activity assay (33P ATP filter binding); conditions: for remaining activity at 0.01 µM: 10 nM compound, read-out: EphB3 % act 10 nM; for remaining activity at 0.03 µM: 30 nM compound, read-out: EphB3 % act 30 nM; for remaining activity at 0.1 µM: 100 nM compound, read-out: EphB3 % act 100 nM
T2 sequence (P54753 34-998): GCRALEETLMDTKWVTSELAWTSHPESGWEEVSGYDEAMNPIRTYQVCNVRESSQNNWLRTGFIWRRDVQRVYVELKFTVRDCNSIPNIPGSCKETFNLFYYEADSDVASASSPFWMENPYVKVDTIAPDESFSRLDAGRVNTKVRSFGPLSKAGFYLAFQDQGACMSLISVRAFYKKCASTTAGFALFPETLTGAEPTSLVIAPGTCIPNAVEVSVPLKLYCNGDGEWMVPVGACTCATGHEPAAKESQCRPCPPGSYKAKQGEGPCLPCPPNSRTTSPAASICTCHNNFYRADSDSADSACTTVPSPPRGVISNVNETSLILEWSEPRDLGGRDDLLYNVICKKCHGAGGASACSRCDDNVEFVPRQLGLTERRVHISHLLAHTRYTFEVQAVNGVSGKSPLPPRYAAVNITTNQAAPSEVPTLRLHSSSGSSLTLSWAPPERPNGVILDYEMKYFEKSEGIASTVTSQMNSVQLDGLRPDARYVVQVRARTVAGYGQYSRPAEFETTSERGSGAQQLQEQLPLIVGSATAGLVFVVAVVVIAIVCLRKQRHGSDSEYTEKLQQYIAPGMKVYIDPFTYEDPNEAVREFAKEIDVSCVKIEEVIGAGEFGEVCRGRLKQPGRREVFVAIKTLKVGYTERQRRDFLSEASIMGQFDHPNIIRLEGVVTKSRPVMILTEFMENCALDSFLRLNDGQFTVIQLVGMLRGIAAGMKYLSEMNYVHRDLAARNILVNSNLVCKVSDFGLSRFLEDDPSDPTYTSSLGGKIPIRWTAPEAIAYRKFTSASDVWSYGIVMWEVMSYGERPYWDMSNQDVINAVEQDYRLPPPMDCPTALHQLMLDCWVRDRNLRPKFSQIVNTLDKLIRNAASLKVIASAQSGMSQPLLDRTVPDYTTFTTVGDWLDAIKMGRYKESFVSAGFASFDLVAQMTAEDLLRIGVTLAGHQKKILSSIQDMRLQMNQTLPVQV
Experimental: EphB3 radiometric kinase activity assay. To study the EphB3 kinase activity, a radioactive filter binding assay using 33P ATP was performed as described at the […] International Centre for Kinase profiling. […] The mix was harvested onto P81 filter plates and counts were read on a Topcount NXT.

[1] = Table 2, Example 12, read-out: EphB3 (nM) IC50
[2] = Example 14, read-out: IC50 (μM), EphB3 receptor kinase inhibitory activity

EphA2, sequence (P29317 24-976): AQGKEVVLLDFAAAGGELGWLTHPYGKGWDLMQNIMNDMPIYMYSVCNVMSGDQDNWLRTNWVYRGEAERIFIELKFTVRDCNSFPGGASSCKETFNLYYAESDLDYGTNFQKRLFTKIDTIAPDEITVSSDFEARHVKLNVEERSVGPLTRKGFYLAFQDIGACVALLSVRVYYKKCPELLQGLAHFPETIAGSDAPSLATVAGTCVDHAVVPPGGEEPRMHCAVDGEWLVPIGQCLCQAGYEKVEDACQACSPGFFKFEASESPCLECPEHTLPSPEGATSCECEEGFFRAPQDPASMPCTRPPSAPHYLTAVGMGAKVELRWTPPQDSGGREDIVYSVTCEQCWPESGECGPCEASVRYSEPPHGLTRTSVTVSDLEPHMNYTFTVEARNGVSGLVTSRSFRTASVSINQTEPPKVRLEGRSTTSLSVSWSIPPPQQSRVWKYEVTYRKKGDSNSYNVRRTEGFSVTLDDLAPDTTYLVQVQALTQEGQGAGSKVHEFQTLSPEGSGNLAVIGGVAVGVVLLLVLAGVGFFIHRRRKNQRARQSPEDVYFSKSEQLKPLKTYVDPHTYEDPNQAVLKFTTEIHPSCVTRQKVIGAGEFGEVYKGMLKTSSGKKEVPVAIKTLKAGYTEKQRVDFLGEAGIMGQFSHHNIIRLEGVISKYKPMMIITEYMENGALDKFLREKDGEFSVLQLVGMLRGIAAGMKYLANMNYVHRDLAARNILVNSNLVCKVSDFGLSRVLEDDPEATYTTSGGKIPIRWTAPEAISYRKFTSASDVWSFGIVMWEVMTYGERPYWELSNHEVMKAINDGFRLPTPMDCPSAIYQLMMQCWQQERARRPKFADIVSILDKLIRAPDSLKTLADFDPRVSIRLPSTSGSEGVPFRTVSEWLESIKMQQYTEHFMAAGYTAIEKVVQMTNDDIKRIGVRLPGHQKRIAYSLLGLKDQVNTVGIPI
EphA4, sequence (P54764 20-986): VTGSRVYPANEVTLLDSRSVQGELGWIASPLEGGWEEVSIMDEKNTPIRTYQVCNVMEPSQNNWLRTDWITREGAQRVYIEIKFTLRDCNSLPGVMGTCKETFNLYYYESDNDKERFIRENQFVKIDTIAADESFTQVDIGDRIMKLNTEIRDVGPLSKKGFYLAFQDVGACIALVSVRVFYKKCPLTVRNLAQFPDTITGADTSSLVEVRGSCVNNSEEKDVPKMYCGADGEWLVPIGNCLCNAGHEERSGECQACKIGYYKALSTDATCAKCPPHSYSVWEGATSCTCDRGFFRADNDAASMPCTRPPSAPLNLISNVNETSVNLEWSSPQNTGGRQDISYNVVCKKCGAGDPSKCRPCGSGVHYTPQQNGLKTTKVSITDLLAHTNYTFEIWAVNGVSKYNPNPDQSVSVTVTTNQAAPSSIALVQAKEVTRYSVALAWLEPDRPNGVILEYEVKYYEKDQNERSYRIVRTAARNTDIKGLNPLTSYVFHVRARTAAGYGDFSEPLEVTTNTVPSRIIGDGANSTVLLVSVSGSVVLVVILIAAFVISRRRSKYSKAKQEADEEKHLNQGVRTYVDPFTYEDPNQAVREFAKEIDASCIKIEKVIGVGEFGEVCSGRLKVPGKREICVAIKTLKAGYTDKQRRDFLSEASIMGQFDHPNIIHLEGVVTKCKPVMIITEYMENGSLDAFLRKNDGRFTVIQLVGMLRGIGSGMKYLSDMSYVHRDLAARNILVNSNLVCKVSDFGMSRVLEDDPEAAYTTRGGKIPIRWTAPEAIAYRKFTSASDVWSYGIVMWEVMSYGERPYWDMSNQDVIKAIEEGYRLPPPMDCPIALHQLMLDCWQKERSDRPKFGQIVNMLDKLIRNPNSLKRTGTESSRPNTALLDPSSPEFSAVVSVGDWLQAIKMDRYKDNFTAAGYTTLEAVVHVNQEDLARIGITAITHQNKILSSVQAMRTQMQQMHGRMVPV

Compound	remaining activity at 0.01 µM (EphB4) [%]	remaining activity at 0.03 µM (EphB4) [%]	remaining activity at 0.1 µM (EphB4) [%]	remaining activity at 0.01 µM (EphA4) [%]	remaining activity at 0.03 µM (EphA4) [%]	remaining activity at 0.1 µM (EphA4) [%]	remaining activity at 0.01 µM (EphA2) [%]	remaining activity at 0.03 µM (EphA2) [%]	remaining activity at 0.1 µM (EphA2) [%]	remaining activity at 0.01 µM (EphB3) [%]	remaining activity at 0.03 µM (EphB3) [%]	remaining activity at 0.1 µM (EphB3) [%]	IC50 (EphB3; [2]) [nM]	also measured
COc1ccccc1-c1ccc2ncc(C(=O)Nc3ccccc3Cl)n2c1 [compound 101, N-(2-Chlorophenyl)-6-(2-methoxyphenyl)imidazo[1,2-a]pyridine-3-carboxamide]	98.8	101	82	100	80.2	74.5	67.7	65.4	77	80.9	62	52.7	–	IC50 (EphB4): 675 nM; IC50 (EphA4): 297 nM; IC50 (EphA2): 315 nM; IC50 (EphB3; [1]): 90 nM
COc1ccc(-c2ccc3ncc(C(=O)Nc4ccccc4Cl)n3c2)cc1 [compound 102, N-(2-Chlorophenyl)-6-(4-methoxyphenyl)imidazo[1,2-a]pyridine-3-carboxamide]	104	103	98	80.4	74.1	83.9	79.9	69.4	59.6	92.4	92.7	88.6	–	–
COc1cccc(-c2ccc3ncc(C(=O)Nc4ccccc4Cl)n3c2)c1 [compound 103, N-(2-Chlorophenyl)-6-(3-methoxyphenyl)imidazo[1,2-a]pyridine-3-carboxamide]	94.7	106	132	102	85.1	85.6	76	75.3	70.5	103	86.2	41	–	–
Cc1ccc(-c2ccc3ncc(C(=O)Nc4ccccc4Cl)n3c2)cc1 [compound 104, N-(2-Chlorophenyl)-6-(4-methylphenyl)imidazo[1,2-a]pyridine-3-carboxamide]	93.1	95.5	98.4	83.8	62.8	57.8	78.1	86	55.9	110	60.5	55.9	–	–
Cc1cccc(-c2ccc3ncc(C(=O)Nc4ccccc4Cl)n3c2)c1 [compound 105, N-(2-Chlorophenyl)-6-(3-methylphenyl)imidazo[1,2-a]pyridine-3-carboxamide]	103	109	93.8	53.9	40.9	35.3	105	88.1	65.3	121	81.1	63.7	–	–
Cc1ccccc1-c1ccc2ncc(C(=O)Nc3ccccc3Cl)n2c1 [compound 106, N-(2-Chlorophenyl)-6-(2-methylphenyl)imidazo[1,2-a]pyridine-3-carboxamide]	98.9	106	110	83.8	58.3	55.1	110	78.9	72.7	132	93.8	63.5	130	IC50 (EphB4): 675 nM; IC50 (EphA4): 110 nM; IC50 (EphA2): 245 nM; IC50 (EphB3; [1]): 182 nM
NCc1cccc(-c2ccc3ncc(C(=O)Nc4ccccc4Cl)n3c2)c1 [compound 108, 6-(3-(Aminomethyl)phenyl)-N-(2-chlorophenyl)imidazo[1,2-a]pyridine-3-carboxamide]	62	–	12	36	–	12	55	–	25	46	–	7	–	remaining activity at 0.3 µM (EphB4; 300 nM compound, read-out: EphB4 % act 300 nM): 2%; remaining activity at 0.3 µM (EphA4; 300 nM compound, read-out: EphA4 % act 300 nM): 6%; remaining activity at 0.3 µM (EphA2; 300 nM compound, read-out: EphA2 % act 300 nM): 11%; remaining activity at 0.3 µM (EphB3; 300 nM compound, read-out: EphB3 % act 300 nM): 4%
O=C(Nc1ncccc1Cl)c1cnc2ccc(C3CCNCC3)cn12 [compound 120, N-(3-chloropyridin-2-yl)-6-(piperidin-4-yl)imidazo[1,2-a]pyridine-3-carboxamide]	–	–	–	–	–	–	–	–	–	–	–	–	2900	–
O=C(Nc1ccncc1Cl)c1cnc2ccc(C3CCNCC3)cn12 [compound 121, N-(3-chloropyridin-4-yl)-6-(piperidin-4-yl)imidazo[1,2-a]pyridine-3-carboxamide]	–	–	–	–	–	–	–	–	–	–	–	–	8100	–
CN1CCC(c2ccc3ncc(C(=O)Nc4ccccc4Cl)n3c2)CC1 [compound 122, N-(2-chlorophenyl)-6-(1-methylpiperidin-4-yl)imidazo[1,2-a]pyridine-3-carboxamide]	–	–	–	–	–	–	–	–	–	–	–	–	89	–
O=C(Nc1cccc(F)c1Cl)c1cnc2ccc(C3CCNCC3)cn12 [compound 123, N-(2-chloro-3-fluorophenyl)-6-(piperidin-4-yl)imidazo[1,2-a]pyridine-3-carboxamide]	–	–	–	–	–	–	–	–	–	–	–	–	6000	–
O=C(Nc1cccc2c1CCO2)c1cnc2ccc(C3CCNCC3)cn12 [compound 124, N-(2,3-dihydrobenzofuran-4-yl)-6-(piperidin-4-yl)imidazo[1,2-a]pyridine-3-carboxamide]	–	–	–	–	–	–	–	–	–	–	–	–	84000	–
